# In patent US7741244B2, “Fungicide compositions” (priority 2002, dated 2010):
# Columns and labels:
# White mold = assay: PDA plate inhibition, caprylic acid and organic acids (Example 13); assay type: cell-based; conditions: PDA plates
# Botrytis cinerea [1] = assay: as above; assay type: cell-based; conditions: PDA plates
# Botrytis cinerea [2] = assay: Inhibition of fungal infections on fresh raspberries (Example 9); assay type: in vivo; conditions: raspberries (Heritage), 60 s dip
# Septoria = conditions: PDA plates, control plate = 100%
# Late blight = assay type: cell-based; conditions: PDA plates; day 2 after inoculum; control plate = 100%
structure (smiles),measurement,setting,value
"O=C(O)CC(O)(CC(=O)O)C(=O)O [0.010% citric acid, citric acid]",Inhibition (%) of white mold,White mold,0%
same,Inhibition (%) of Botrytis cinerea,Botrytis cinerea [1],0%
"O=C(O)CCC(=O)O [0.010% succinic acid, succinic acid]",Inhibition (%) of white mold,White mold,0%
same,Inhibition (%) of Botrytis cinerea,Botrytis cinerea [1],0%
"O=C(O)C(O)C(O)C(=O)O (stereo not shown) [0.75% tartaric acid, tartaric acid]",Infected berries (% of total) Day 2,Botrytis cinerea [2]; day 2,31%
same,Infected berries (% of total) Day 3,Botrytis cinerea [2]; day 3,58%
same,Infected berries (% of total) Day 4,Botrytis cinerea [2]; day 4,86%
same,Infected berries (% of total) Day 6,Botrytis cinerea [2]; day 6,92%
same,Infected berries (% of total) Day 8,Botrytis cinerea [2]; day 8,92%
same,Infected berries (% of total) Day 10,Botrytis cinerea [2]; day 10,92%
same,Infected berries (% of total) Day 12,Botrytis cinerea [2]; day 12,92%
O=C(O)CO [glycolic acid],Inhibition (%) of white mold,White mold,0%
same,Inhibition (%) of Botrytis cinerea,Botrytis cinerea [1],0%
same,"Measurement of fungal growth, Septoria Day 2",Septoria; day 2 after inoculum,80%
same,"Measurement of fungal growth, Septoria Day 3",Septoria; day 3 after inoculum,90%
same,"Measurement of fungal growth, Late blight Day 2",Late blight,79%
